Reference: the NIST ThermoML archive (doi:10.1021/je060184i)
± gives the expanded uncertainty stated by the source.

Assays:
[1] = Liquid, Closed cell (Static) method
[2] = excess molar enthalpy (molar enthalpy of mixing); xn = mol fraction of the nth substance listed; conditions: 298.15 K, 101 kPa, Liquid, Flow calorimetry

Compound	vapor or sublimation pressure ([1]; 273.15 K)	vapor or sublimation pressure ([1]; 283.15 K)	vapor or sublimation pressure ([1]; 293.15 K)	vapor or sublimation pressure ([1]; 298.15 K)	vapor or sublimation pressure ([1]; 303.15 K)	vapor or sublimation pressure ([1]; 313.15 K)	vapor or sublimation pressure ([1]; 323.15 K)	vapor or sublimation pressure ([1]; 333.15 K)	vapor or sublimation pressure ([1]; 343.15 K)	vapor or sublimation pressure ([1]; 353.15 K)	vapor or sublimation pressure ([1]; 363.15 K)	further results
C1CCCCC1 [cyclohexane]	3.73 ± 0.03 kPa	6.357 ± 0.043 kPa	10.37 ± 0.064 kPa	13.04 ± 0.078 kPa	16.26 ± 0.096 kPa	24.65 ± 0.14 kPa	36.24 ± 0.2 kPa	51.85 ± 0.28 kPa	72.39 ± 0.39 kPa	98.85 ± 0.53 kPa	132.33 ± 0.71 kPa	vapor or sublimation pressure ([1]; 263.15 K): 2.082 ± 0.023 kPa
CCCCCCC [heptane]	1.531 ± 0.02 kPa	2.76 ± 0.025 kPa	4.736 ± 0.034 kPa	6.104 ± 0.04 kPa	7.787 ± 0.049 kPa	12.32 ± 0.07 kPa	18.85 ± 0.1 kPa	27.99 ± 0.15 kPa	40.43 ± 0.21 kPa	56.99 ± 0.29 kPa	78.59 ± 0.4 kPa	–
C=CCCCC [hex-1-ene]	7.687 ± 0.051 kPa	12.64 ± 0.076 kPa	19.98 ± 0.12 kPa	24.77 ± 0.14 kPa	30.46 ± 0.17 kPa	44.98 ± 0.25 kPa	64.6 ± 0.35 kPa	90.44 ± 0.49 kPa	123.79 ± 0.67 kPa	165.99 ± 0.89 kPa	218.5 ± 1.2 kPa	–
C=CCCCC [hex-1-ene] + CCCOC(C)=O	–	–	–	–	–	–	–	–	–	–	–	excess molar enthalpy ([2]; x2 = 0.0943): 0.062 ± 0.00239 kcal/mol; excess molar enthalpy ([2]; x2 = 0.2122): 0.114 ± 0.00263 kcal/mol; excess molar enthalpy ([2]; x2 = 0.3238): 0.141 ± 0.00263 kcal/mol; excess molar enthalpy ([2]; x2 = 0.418): 0.151 ± 0.00263 kcal/mol; excess molar enthalpy ([2]; x2 = 0.4609): 0.152 ± 0.00263 kcal/mol; excess molar enthalpy ([2]; x2 = 0.4822): 0.152 ± 0.00263 kcal/mol; excess molar enthalpy ([2]; x2 = 0.5032): 0.151 ± 0.00263 kcal/mol; excess molar enthalpy ([2]; x2 = 0.5241): 0.15 ± 0.00263 kcal/mol; excess molar enthalpy ([2]; x2 = 0.5449): 0.148 ± 0.00263 kcal/mol; excess molar enthalpy ([2]; x2 = 0.6178): 0.139 ± 0.00263 kcal/mol; excess molar enthalpy ([2]; x2 = 0.7186): 0.117 ± 0.00263 kcal/mol; excess molar enthalpy ([2]; x2 = 0.8117): 0.0874 ± 0.00263 kcal/mol; excess molar enthalpy ([2]; x2 = 0.9076): 0.0475 ± 0.00239 kcal/mol
CCCOC(C)=O [propyl ethanoate]	1.006 ± 0.018 kPa	1.909 ± 0.022 kPa	3.43 ± 0.029 kPa	4.514 ± 0.034 kPa	5.875 ± 0.041 kPa	9.645 ± 0.06 kPa	15.25 ± 0.09 kPa	23.33 ± 0.13 kPa	34.64 ± 0.19 kPa	50.07 ± 0.28 kPa	70.64 ± 0.38 kPa	vapor or sublimation pressure ([1]; 263.15 K): 0.4981 ± 0.01 kPa
CCCOC(C)=O [propyl ethanoate] + C1CCCCC1	–	–	–	–	–	–	–	–	–	–	–	excess molar enthalpy ([2]; x1 = 0.1031): 0.127 ± 0.00263 kcal/mol; excess molar enthalpy ([2]; x1 = 0.1888): 0.195 ± 0.00287 kcal/mol; excess molar enthalpy ([2]; x1 = 0.2926): 0.244 ± 0.00311 kcal/mol; excess molar enthalpy ([2]; x1 = 0.3829): 0.265 ± 0.00311 kcal/mol; excess molar enthalpy ([2]; x1 = 0.4249): 0.268 ± 0.00311 kcal/mol; excess molar enthalpy ([2]; x1 = 0.4667): 0.269 ± 0.00311 kcal/mol; excess molar enthalpy ([2]; x1 = 0.4876): 0.267 ± 0.00311 kcal/mol; excess molar enthalpy ([2]; x1 = 0.5084): 0.265 ± 0.00311 kcal/mol; excess molar enthalpy ([2]; x1 = 0.5827): 0.252 ± 0.00311 kcal/mol; excess molar enthalpy ([2]; x1 = 0.6881): 0.215 ± 0.00287 kcal/mol; excess molar enthalpy ([2]; x1 = 0.7883): 0.163 ± 0.00263 kcal/mol; excess molar enthalpy ([2]; x1 = 0.8945): 0.0901 ± 0.00263 kcal/mol
CCCOC(C)=O [propyl ethanoate] + CCCCCCC	–	–	–	–	–	–	–	–	–	–	–	excess molar enthalpy ([2]; x1 = 0.1087): 0.121 ± 0.00263 kcal/mol; excess molar enthalpy ([2]; x1 = 0.1348): 0.143 ± 0.00263 kcal/mol; excess molar enthalpy ([2]; x1 = 0.2399): 0.214 ± 0.00287 kcal/mol; excess molar enthalpy ([2]; x1 = 0.3594): 0.259 ± 0.00311 kcal/mol; excess molar enthalpy ([2]; x1 = 0.457): 0.273 ± 0.00311 kcal/mol; excess molar enthalpy ([2]; x1 = 0.5004): 0.273 ± 0.00311 kcal/mol; excess molar enthalpy ([2]; x1 = 0.5217): 0.272 ± 0.00311 kcal/mol; excess molar enthalpy ([2]; x1 = 0.5427): 0.27 ± 0.00311 kcal/mol; excess molar enthalpy ([2]; x1 = 0.5634): 0.266 ± 0.00311 kcal/mol; excess molar enthalpy ([2]; x1 = 0.5838): 0.262 ± 0.00311 kcal/mol; excess molar enthalpy ([2]; x1 = 0.6544): 0.244 ± 0.00311 kcal/mol; excess molar enthalpy ([2]; x1 = 0.7495): 0.202 ± 0.00287 kcal/mol; excess molar enthalpy ([2]; x1 = 0.8346): 0.15 ± 0.00263 kcal/mol; excess molar enthalpy ([2]; x1 = 0.92): 0.0807 ± 0.00263 kcal/mol; excess molar enthalpy ([2]; x1 = 0.9526): 0.0495 ± 0.00239 kcal/mol
